Data on four compounds can be found in paper PMC10499406 (Clinical and Translational Science, 2023).

What is called AUC(0-inf) is total exposure, with the tail of the curve extrapolated. Read a high AUC(0-inf) as more exposure. The AUC(0-t) is the area under the concentration-time curve up to a stated or last time point. For orientation: Cmax means the peak of the concentration-time curve. What is called half-life is the time needed for the level to fall by half in the phase considered.

Like-named read-outs stand apart in the source and are kept apart here.

The test system of data set [1] is CYP3A4.
Data set [2] concerns CYP3A4. The data set is described as follows: clinical. As to conditions: human, in vivo.
Another data set relates to IL‐1β. To be noted: patients with atherosclerosis and residual inflammation ref 8; cited from earlier work.
Data set [3] can be described thus: Plasma PK of metabolite indacenyl amine after GDC‐2394. The class given is in vivo, human.
Where [4] appears, read: 1‐hydroxymidazolam, day 10 vs day 1.
Setting [5] is: midazolam 5 mg alone (reference, day 1), analyte 1‐hydroxymidazolam, n 9.

`OCc1ncc2n1-c1ccc(Cl)cc1C(c1ccccc1F)=NC2` [1‐hydroxymidazolam]: in the data set on CYP3A4 [1] (setting [4]), the “AUC0–inf GMR” value is given as 90%, the “AUC0–last GMR” value was 88% and the “Cmax GMR” value is recorded as 92%. Besides, in the data set with CYP3A4 [1] (setting [5]), the “AUC0–inf, geometric LS mean” value was determined as 20.3 ng·h/mL; the “AUC0–last, geometric LS mean” value was 18.8 ng·h/mL; the “C max, geometric LS mean” value was found to be 9.25 ng/mL.
In the data set with CYP3A4 [2], `Cc1ncc2n1-c1ccc(Cl)cc1C(c1ccccc1F)=NC2` [Midazolam, midazolam, reference compound] registered an area under the curve AUC(0-inf) of 56 ng·h/mL, an exposure AUC(0-t) of 53.8 ng·h/mL and a maximum concentration (Cmax) of 25.6 ng/mL. In the data set on CYP3A4 [2] (5 mg), the AUC(0-inf) was found to be 57.8 ng·h/mL, the area under the curve AUC(0-t) came to 53.4 ng·h/mL and the peak concentration (Cmax) was 22.9 ng/mL. Besides, in the data set on CYP3A4 [1] (human, in vivo), the “AUC0–inf GMR” value is on record as 97%; the “AUC0–inf GMR (test/reference), estimate” value is listed as 0.97; the “AUC0–last GMR” value amounted to 101%; the “AUC0–last GMR (test/reference), estimate” value is on record as 1.01. In the data set on CYP3A4 [1] (human, in vivo), the “C max GMR (test/reference), estimate” value is reported as 1.12 and the “Cmax GMR” value turned out to be 112%.
For the compound canakinumab: an anti‐IL‐1β antibody, the “frequency of cardiovascular events” value in the data set on IL‐1β is listed as “significantly reduced”.
With `Nc1c2c(cc3c1CCC3)CCC2` [indacenyl amine, 1,2,3,5,6,7‐hexahydro‐s‐indacen‐4‐amine], in data set [3] (MAD 900‐mg b.i.d. cohort), the “day 7 predose indacenyl amine concentration, range” value was in the range of 65.8 to 158 ng/mL. Further, the half-life in data set [3] (human, plasma, oral) fell in the range of 36 to 49 h.
